Non-standard residues stand in square brackets, D forms with d. No end group written: not given here. *: point of attachment. Biotin = O=C1N[C@H]2[C@H](CS[C@H]2CCCCC(=O)*)N1; Cit = NC(=O)NCCC[C@H](N)C(=O)O
system: IgG ACPAs; assay: ACPA ELISA with anti-human IgG secondary antibody; assay type: binding; conditions: not given
Method: The synthetic citrullnated peptides set forth in Example 6, which were designed from synovial proteins, were synthesized and evaluated for their ability to diagnose and/or prognose RA. […] The peptides were then tested for IgG ACPA dose-response in samples of synovial fluid taken from both healthy patients and patients with RA.

| Substance | sensitivity for autoantibodies of the IgG class (in words) |
| --- | --- |
| Biotin-GGGP[Cit]VVE[Cit]HQSAGGGTK[Cit]GHAKSRPV[Cit]GIHT [[Arg^25]Cit-α32] | particularly high sensitivity |

same assay, conditions: Example 7, FIGS. 20-27

| Substance | IgG ACPA positive response (strong/moderate) |
| --- | --- |
| Apo a-4: synthetic citrullinated peptide derived from Apolipoprotein a, Table 8 (Biotin-HWHQ[Cit]TTEYYPNGGLT[Cit]GGLTRNYS[Cit]N-NH2; SMILES CC(C)C[C@H](NC(=O)CNC(=O)CNC(=O)[C@H](CC(N)=O)NC(=O)[C@@H]1CCCN1C(=O)[C@H](Cc1ccc(O)cc1)NC(=O)[C@H](Cc1ccc(O)cc1)NC(=O)[C@H](CCC(=O)O)NC(=O)[C@@H](NC(=O)[C@@H](NC(=O)[C@H](CCCNC(N)=O)NC(=O)[C@H](CCC(N)=O)NC(=O)[C@H](Cc1c[nH]cn1)NC(=O)[C@H](Cc1c[nH]c2ccccc12)NC(=O)[C@H](Cc1c[nH]cn1)NC(=O)CCCC[C@@H]1SC[C@@H]2NC(=O)N[C@@H]21)[C@@H](C)O)[C@@H](C)O)C(=O)N[C@H](C(=O)N[C@@H](CCCNC(N)=O)C(=O)NCC(=O)NCC(=O)N[C@@H](CC(C)C)C(=O)N[C@H](C(=O)N[C@@H](CCCNC(=N)N)C(=O)N[C@@H](CC(N)=O)C(=O)N[C@@H](Cc1ccc(O)cc1)C(=O)N[C@@H](CO)C(=O)N[C@@H](CCCNC(N)=O)C(=O)N[C@@H](CC(N)=O)C(N)=O)[C@@H](C)O)[C@@H](C)O) | strong |
| Apo a-6: synthetic citrullinated peptide derived from Apolipoprotein a, Table 8 (Biotin-HWHR[Cit]IPLYYPNAGLT[Cit]AGLTRNYS[Cit]N-NH2; SMILES CC[C@H](C)[C@H](NC(=O)[C@H](CCCNC(N)=O)NC(=O)[C@H](CCCNC(=N)N)NC(=O)[C@H](Cc1c[nH]cn1)NC(=O)[C@H](Cc1c[nH]c2ccccc12)NC(=O)[C@H](Cc1c[nH]cn1)NC(=O)CCCC[C@@H]1SC[C@@H]2NC(=O)N[C@@H]21)C(=O)N1CCC[C@H]1C(=O)N[C@@H](CC(C)C)C(=O)N[C@@H](Cc1ccc(O)cc1)C(=O)N[C@@H](Cc1ccc(O)cc1)C(=O)N1CCC[C@H]1C(=O)N[C@@H](CC(N)=O)C(=O)N[C@@H](C)C(=O)NCC(=O)N[C@@H](CC(C)C)C(=O)N[C@H](C(=O)N[C@@H](CCCNC(N)=O)C(=O)N[C@@H](C)C(=O)NCC(=O)N[C@@H](CC(C)C)C(=O)N[C@H](C(=O)N[C@@H](CCCNC(=N)N)C(=O)N[C@@H](CC(N)=O)C(=O)N[C@@H](Cc1ccc(O)cc1)C(=O)N[C@@H](CO)C(=O)N[C@@H](CCCNC(N)=O)C(=O)N[C@@H](CC(N)=O)C(N)=O)[C@@H](C)O)[C@@H](C)O) | strong |
| Bip-2: synthetic citrullinated peptide derived from BiP, Table 8 (Biotin-DVRKDN[Cit]AVQKLR[Cit]EVEKAK[Cit]ALSSQHQ-NH2; SMILES CC(C)C[C@H](NC(=O)[C@H](C)NC(=O)[C@H](CCCNC(N)=O)NC(=O)[C@H](CCCCN)NC(=O)[C@H](C)NC(=O)[C@H](CCCCN)NC(=O)[C@H](CCC(=O)O)NC(=O)[C@@H](NC(=O)[C@H](CCC(=O)O)NC(=O)[C@H](CCCNC(N)=O)NC(=O)[C@H](CCCNC(=N)N)NC(=O)[C@H](CC(C)C)NC(=O)[C@H](CCCCN)NC(=O)[C@H](CCC(N)=O)NC(=O)[C@@H](NC(=O)[C@H](C)NC(=O)[C@H](CCCNC(N)=O)NC(=O)[C@H](CC(N)=O)NC(=O)[C@H](CC(=O)O)NC(=O)[C@H](CCCCN)NC(=O)[C@H](CCCNC(=N)N)NC(=O)[C@@H](NC(=O)[C@H](CC(=O)O)NC(=O)CCCC[C@@H]1SC[C@@H]2NC(=O)N[C@@H]21)C(C)C)C(C)C)C(C)C)C(=O)N[C@@H](CO)C(=O)N[C@@H](CO)C(=O)N[C@@H](CCC(N)=O)C(=O)N[C@@H](Cc1c[nH]cn1)C(=O)N[C@@H](CCC(N)=O)C(N)=O) | moderate |
| Bip-3: synthetic citrullinated peptide derived from BiP, Table 8 (Biotin-GEDFSETLT[Cit]DLF[Cit]STMKPIVLVGGST[Cit]R-NH2; SMILES CC[C@H](C)[C@H](NC(=O)[C@@H]1CCCN1C(=O)[C@H](CCCCN)NC(=O)[C@H](CCSC)NC(=O)[C@@H](NC(=O)[C@H](CO)NC(=O)[C@H](CCCNC(N)=O)NC(=O)[C@H](Cc1ccccc1)NC(=O)[C@H](CC(C)C)NC(=O)[C@H](CC(=O)O)NC(=O)[C@H](CCCNC(N)=O)NC(=O)[C@@H](NC(=O)[C@H](CC(C)C)NC(=O)[C@@H](NC(=O)[C@H](CCC(=O)O)NC(=O)[C@H](CO)NC(=O)[C@H](Cc1ccccc1)NC(=O)[C@H](CC(=O)O)NC(=O)[C@H](CCC(=O)O)NC(=O)CNC(=O)CCCC[C@@H]1SC[C@@H]2NC(=O)N[C@@H]21)[C@@H](C)O)[C@@H](C)O)[C@@H](C)O)C(=O)N[C@H](C(=O)N[C@@H](CC(C)C)C(=O)N[C@H](C(=O)NCC(=O)NCC(=O)N[C@@H](CO)C(=O)N[C@H](C(=O)N[C@@H](CCCNC(N)=O)C(=O)N[C@@H](CCCNC(=N)N)C(N)=O)[C@@H](C)O)C(C)C)C(C)C) | moderate |
| FBNT-3: synthetic citrullinated peptide derived from fibronectin, Table 8 (Biotin-GVLV[Cit]WTPPRLVRWTPP[Cit]AQG-NH2; SMILES CC(C)C[C@H](NC(=O)[C@H](CCCNC(=N)N)NC(=O)[C@@H]1CCCN1C(=O)[C@@H]1CCCN1C(=O)[C@@H](NC(=O)[C@H](Cc1c[nH]c2ccccc12)NC(=O)[C@H](CCCNC(N)=O)NC(=O)[C@@H](NC(=O)[C@H](CC(C)C)NC(=O)[C@@H](NC(=O)CNC(=O)CCCC[C@@H]1SC[C@@H]2NC(=O)N[C@@H]21)C(C)C)C(C)C)[C@@H](C)O)C(=O)N[C@H](C(=O)N[C@@H](CCCNC(=N)N)C(=O)N[C@@H](Cc1c[nH]c2ccccc12)C(=O)N[C@H](C(=O)N1CCC[C@H]1C(=O)N1CCC[C@H]1C(=O)N[C@@H](CCCNC(N)=O)C(=O)N[C@@H](C)C(=O)N[C@@H](CCC(N)=O)C(=O)NCC(N)=O)[C@@H](C)O)C(C)C) | moderate |
| FBNT-5: synthetic citrullinated peptide derived from fibronectin, Table 8 (Biotin-RGVLTVSWE[Cit]STTPDITGY[Cit]ITTTPTNR-NH2; SMILES CC[C@H](C)[C@H](NC(=O)[C@H](CC(=O)O)NC(=O)[C@@H]1CCCN1C(=O)[C@@H](NC(=O)[C@@H](NC(=O)[C@H](CO)NC(=O)[C@H](CCCNC(N)=O)NC(=O)[C@H](CCC(=O)O)NC(=O)[C@H](Cc1c[nH]c2ccccc12)NC(=O)[C@H](CO)NC(=O)[C@@H](NC(=O)[C@@H](NC(=O)[C@H](CC(C)C)NC(=O)[C@@H](NC(=O)CNC(=O)[C@H](CCCNC(=N)N)NC(=O)CCCC[C@@H]1SC[C@@H]2NC(=O)N[C@@H]21)C(C)C)[C@@H](C)O)C(C)C)[C@@H](C)O)[C@@H](C)O)C(=O)N[C@H](C(=O)NCC(=O)N[C@@H](Cc1ccc(O)cc1)C(=O)N[C@@H](CCCNC(N)=O)C(=O)N[C@H](C(=O)N[C@H](C(=O)N[C@H](C(=O)N[C@H](C(=O)N1CCC[C@H]1C(=O)N[C@H](C(=O)N[C@@H](CC(N)=O)C(=O)N[C@@H](CCCNC(=N)N)C(N)=O)[C@@H](C)O)[C@@H](C)O)[C@@H](C)O)[C@@H](C)O)[C@@H](C)CC)[C@@H](C)O) | moderate |
| FBNT-6: synthetic citrullinated peptide derived from fibronectin, Table 8 (Biotin-RIAP[Cit]ATITGPRATITGY[Cit]YRI[Cit]HHPEHG-NH2; SMILES CC[C@H](C)[C@H](NC(=O)[C@H](CCCNC(=N)N)NC(=O)CCCC[C@@H]1SC[C@@H]2NC(=O)N[C@@H]21)C(=O)N[C@@H](C)C(=O)N1CCC[C@H]1C(=O)N[C@@H](CCCNC(N)=O)C(=O)N[C@@H](C)C(=O)N[C@H](C(=O)N[C@H](C(=O)N[C@H](C(=O)NCC(=O)N1CCC[C@H]1C(=O)N[C@@H](CCCNC(=N)N)C(=O)N[C@@H](C)C(=O)N[C@H](C(=O)N[C@H](C(=O)N[C@H](C(=O)NCC(=O)N[C@@H](Cc1ccc(O)cc1)C(=O)N[C@@H](CCCNC(N)=O)C(=O)N[C@@H](Cc1ccc(O)cc1)C(=O)N[C@@H](CCCNC(=N)N)C(=O)N[C@H](C(=O)N[C@@H](CCCNC(N)=O)C(=O)N[C@@H](Cc1c[nH]cn1)C(=O)N[C@@H](Cc1c[nH]cn1)C(=O)N1CCC[C@H]1C(=O)N[C@@H](CCC(=O)O)C(=O)N[C@@H](Cc1c[nH]cn1)C(=O)NCC(N)=O)[C@@H](C)CC)[C@@H](C)O)[C@@H](C)CC)[C@@H](C)O)[C@@H](C)O)[C@@H](C)CC)[C@@H](C)O) | strong |
| FBNT-7: synthetic citrullinated peptide derived from fibronectin, Table 8 (Biotin-GP[Cit]EDRVPHSPRED[Cit]VPHS[Cit]NSITLTNG-NH2; SMILES CC[C@H](C)[C@H](NC(=O)[C@H](CO)NC(=O)[C@H](CC(N)=O)NC(=O)[C@H](CCCNC(N)=O)NC(=O)[C@H](CO)NC(=O)[C@H](Cc1c[nH]cn1)NC(=O)[C@@H]1CCCN1C(=O)[C@@H](NC(=O)[C@H](CCCNC(N)=O)NC(=O)[C@H](CC(=O)O)NC(=O)[C@H](CCC(=O)O)NC(=O)[C@H](CCCNC(=N)N)NC(=O)[C@@H]1CCCN1C(=O)[C@H](CO)NC(=O)[C@H](Cc1c[nH]cn1)NC(=O)[C@@H]1CCCN1C(=O)[C@@H](NC(=O)[C@H](CCCNC(=N)N)NC(=O)[C@H](CC(=O)O)NC(=O)[C@H](CCC(=O)O)NC(=O)[C@H](CCCNC(N)=O)NC(=O)[C@@H]1CCCN1C(=O)CNC(=O)CCCC[C@@H]1SC[C@@H]2NC(=O)N[C@@H]21)C(C)C)C(C)C)C(=O)N[C@H](C(=O)N[C@@H](CC(C)C)C(=O)N[C@H](C(=O)N[C@@H](CC(N)=O)C(=O)NCC(N)=O)[C@@H](C)O)[C@@H](C)O) | moderate |

same assay, conditions: FIG. 4; IgG ACPAs

| Substance | EC50 of the INOVA CCP IgG assay relative to EC50 of the peptide assay [fold] |
| --- | --- |
| Biotin-GGGP[Cit]VVE[Cit]HQSAGGGTK[Cit]GHAKSRPV[Cit]GIHT [[Arg^25]Cit-α32] | 143 |
